How the values were obtained:
Cl_EstA = biological target: T1, Cl_EstA (Clostridium botulinum, UniProt A5I055)
T1 construct: gene lipA

Dt_Est = biological target: T2, Dt_Est (Desulfurispora thermophila, UniProt Z9TUI6NBX6); assay: pNP release, absorbance […] nm; type: biochemical
T2 sequence (Z9TUI6NBX6 32-423): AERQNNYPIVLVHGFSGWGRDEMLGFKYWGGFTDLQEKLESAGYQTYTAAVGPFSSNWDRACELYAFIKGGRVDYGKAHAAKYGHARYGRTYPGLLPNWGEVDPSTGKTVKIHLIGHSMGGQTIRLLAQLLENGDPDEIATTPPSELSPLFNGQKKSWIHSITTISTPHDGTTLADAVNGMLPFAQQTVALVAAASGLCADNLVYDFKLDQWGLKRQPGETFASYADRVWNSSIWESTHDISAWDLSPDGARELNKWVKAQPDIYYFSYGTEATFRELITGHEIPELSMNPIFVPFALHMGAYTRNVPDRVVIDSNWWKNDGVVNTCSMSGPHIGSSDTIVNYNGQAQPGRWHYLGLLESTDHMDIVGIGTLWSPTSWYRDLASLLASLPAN

Tl_Est64 = biological target: T3, Tl_Est64 (Thermosyntropha lipolytica, UniProt A0A1M5LUW5); assay: pNP release, absorbance […] nm; type: biochemical
T3 construct: gene SAMN02745221_00755
T3 sequence (A0A1M5LUW5 29-416): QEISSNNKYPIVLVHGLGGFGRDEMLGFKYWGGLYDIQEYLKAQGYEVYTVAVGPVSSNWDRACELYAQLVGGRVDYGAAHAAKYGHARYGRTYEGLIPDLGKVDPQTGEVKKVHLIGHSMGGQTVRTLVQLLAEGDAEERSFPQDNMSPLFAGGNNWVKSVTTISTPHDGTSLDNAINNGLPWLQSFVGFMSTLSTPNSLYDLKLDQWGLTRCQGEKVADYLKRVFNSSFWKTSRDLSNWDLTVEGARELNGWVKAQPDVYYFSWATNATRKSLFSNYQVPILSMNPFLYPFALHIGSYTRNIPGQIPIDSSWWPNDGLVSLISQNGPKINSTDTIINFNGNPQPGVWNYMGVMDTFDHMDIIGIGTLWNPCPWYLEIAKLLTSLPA

T1 sequence (A5I055 1-480): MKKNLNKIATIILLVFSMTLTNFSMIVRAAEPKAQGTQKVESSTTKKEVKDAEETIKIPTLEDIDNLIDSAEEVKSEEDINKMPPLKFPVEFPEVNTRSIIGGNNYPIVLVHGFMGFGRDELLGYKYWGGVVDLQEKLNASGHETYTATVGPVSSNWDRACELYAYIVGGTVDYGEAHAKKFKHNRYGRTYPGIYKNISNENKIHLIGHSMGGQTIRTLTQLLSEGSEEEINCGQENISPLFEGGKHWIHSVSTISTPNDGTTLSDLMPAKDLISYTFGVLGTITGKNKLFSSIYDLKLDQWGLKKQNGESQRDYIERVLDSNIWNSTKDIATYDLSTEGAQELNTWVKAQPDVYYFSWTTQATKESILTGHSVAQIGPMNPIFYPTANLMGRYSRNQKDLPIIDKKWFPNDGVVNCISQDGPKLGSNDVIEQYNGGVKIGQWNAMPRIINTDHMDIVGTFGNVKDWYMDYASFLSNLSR

SMILES	pNP release, absorbance 405 nm (Tl_Est64)	further results
CC(=O)Oc1ccc([N+](=O)[O-])cc1 [pNP acetate]	–	pNP release, absorbance 405 nm (Cl_EstA): except Cl_EstA, which had the best activity with pNP acetate
CCCCCCCC(=O)Oc1ccc([N+](=O)[O-])cc1 [pNP octanoate]	–	pNP release, absorbance 405 nm (Dt_Est): Dt_Est showed the highest activity with pNP octanoate
CCCC(=O)Oc1ccc([N+](=O)[O-])cc1 [pNP butyrate]	Tl_Est64 showed the highest overall activity with the substrates pNP butyrate and pNP valerate	–
CCCCC(=O)Oc1ccc([N+](=O)[O-])cc1 [pNP valerate]	Tl_Est64 showed the highest overall activity with the substrates pNP butyrate and pNP valerate	–
